The results in this text go back to patent US20130150430A1, “Methods for Impairing the P53/HDM2 Auto-Regulatory Loop in Multiple Myeloma Development Using mIR-192, mIR-194 and mIR-215” (THE OHIO STATE UNIVERSITY, priority 2011, published 2013).

For this data set, the system named is NCI-H929 and RPMI-8226 IGF-1 treated cells. The experiment in a line: Intra-epithelial trans-well migration assay with IGF-1 as attractant. The class given is cell-based, human. Particulars: ectopic expression, vs Scr control. From the text: FIG. 7B: Intra-epithelial migration assay in MM cells miRNAs transfected using HS-5 cells at different concentrations of IGF-1 as attractant. Bars indicate relative fold change of migration compared with the control ±SD.
FIG. 21C: Intra-epithelial migration assay in MM1s and RPMI-8226 cells (pre-miRNA-192, -194, -215, Scr-transfected) using HS-27A stromal cell as cellular layer at different concentrations of IGF-1 as attractant. Bars indicate relative fold change of migration compared with the control. All experiments were performed in triplicate.
To this end, the inventors used intra-epithelial trans-well migration assay with IGF-1 at various concentrations as attractant and two bone marrow-derived stromal cells, HS-5 (fibroblast-like) and HS-27A (epithelial-like) as cell layer.
IGF-I-induced MM transendothelial migration was determined using 24 well, 6.5 mm internal diameter transwell cluster plates with polycarbonate membranes ([…] pore size) separating the 2 chambers (Corning Costar, Cambridge, Mass.). Bone marrow stromal cell lines HS-5 and HS-27A were grown on the insert for 24 hrs to produce a confluent monolayer. […] At the end of the incubation period, cells migrating through endothelial or bone marrow stromal cell layers into the lower chamber were harvested, stained with trypan blue, and counted under a microscope.

As for “miR-192: microRNA, p53-activated, down-regulated in MM; transfected as miRNA precursor (Ambion) or lentivector; SEQ ID NO:56 (CUGACCUAUGAAUUGACAGCC; listed as RNA, chemistry not given here; listed as Homo sapiens)”, the “migration and tissue invasion” value is “significant decrease”.

Turning to “miR-215: microRNA, p53-activated, down-regulated in MM; transfected as miRNA precursor (Ambion) or lentivector; SEQ ID NO:58 (AUGACCUAUGAAUUGACAGAC; listed as RNA, chemistry not given here; listed as Homo sapiens)”, the “migration and tissue invasion” value is “significant decrease”.
